Assay results reported in US20230022796A1 (Merck Patent GmbH, priority 2019, published 2023).

Legend:
FcγRIIIa V176 = assay: Surface plasmon resonance (Biacore) binding of mAb3 from treated cultures to FcγRIIIa
Method: Binding of samples after 5-ThioFuc treatment was investigated by surface plasmon resonance technology using a Biacore T200 system (GE Healthcare, Uppsala, Sweden). The analysis temperature was set to 25° C. and sample compartment temperature to 15° C. […] The anti-His antibody was further used to capture His-tagged FcγRIIIa V176 ([…]) from AcroBiosystems (Newark, Del., USA).
Binding was recorded continuously, while unspecific binding and injection artefacts were subtracted automatically. Single-cycle kinetics were used with a dissociation time of 600 s at a flow rate of 30 μL/min. Data collection rate was performed at 10 Hz. Following each experiment, both flow cells were regenerated for 30 s with 10 mM glycine-HCl pH 1.5 according to kit instructions. Data of three technical and two biological replicates were fitted with a 1:1 binding model. The global dissociation constant KD was determined from the ratio of the kinetic rate constants for dissociation (kd) and association (ka) values. Data are presented in Table 1 as fold change compared to the control.

[1] = test system: CHO cell line producing mAb3; assay: Fed-batch cell performance (viable cell density), clone 3 producing mAb3; format: cell-based, Chinese hamster; settings: mAb3, feed with 400 μM additive
Method: Four different clones of Chinese hamster ovary (CHO) cells expressing three different monoclonal antibodies (mAb) and a fusion protein were tested. Cells were cultivated in spin tubes between 14 and 20 days at 37° C., 5% CO2, and 80% humidity. As starting cell density, 3×10^5 cells/mL in 30 mL Cellvento®4CHO media (pH 7.0±0.1) was used for clone 1 and 2 producing mAb1 and mAb2, respectively (Cellvento® Platform). Cells were cultivated at an agitation rate of 320 rpm and were fed on day 3, 5, 10, 12 and 14 with 3% volume of Cellvento® 4Feed (v/v) and on day 7 with 6% (v/v) of the feed. Clone 3 and 4 producing mAb3 and a fusion protein were inoculated at the same cell density in 30 mL Ex-Cell® Advanced Media (pH 7.2±0.1) while agitation was set to 230 rpm. Clones 3 and 4 were fed with 5% Ex-Cell® Advanced Feed (v/v) on day 3, 5, 7, 10, 12, 14 and 17. […]
The glucose level was maintained above 4 g/L by adding a specific amount of a 400 g/L glucose stock solution on demand to up to 6 g/L during the week and up to 13 g/L over the weekend. Glucose and titer were detected in the supernatant with the bioprocess analyzer CEDEX Bio HT (Roche, Mannheim, Germany) based on spectrophotometric and turbidometric methods. The viable cell density (VCD) and viability were evaluated with a Vi-CELL™ XR 2.04 cell counter (Beckman Coulter, Fullerton, Calif., USA). […]

[2] = test system: CHO cell line producing mAb1; assay: Glycosylation profile (UPLC-MS of released glycans) of mAb1 from fed-batch; format: cell-based, Chinese hamster; settings: for reduction of the fucosylation compared to the control: mAb1, same concentration of both additives
Method: Glycosylation patterns were analyzed by ultra-performance liquid chromatography coupled to a mass spectrometer (UPLC-MS). The purified antibody was denaturated and the glycans were released from the antibody by digestion with peptide N-glycosidase F (PNGase F) followed by labeling the glycans with the GlycoWorks™ RapiFluor-MS™ N-Glycan Kit according to the manufacturer protocol. For the analysis, an UPLC glycan column (2.1×150 mm) that separated the glycans according to their […] was used. The chromatography was performed at 45° C. using 50 mM ammonium formate (A), pH 4.4 solution and an acetonitrile (B) gradient. In detail, at the beginning the ratio of A:B was 20:80 (0 min) and changed to 27:73 at 3 min and 37:63 at 35 min at a flow rate of 0.5 ml/min. From 36.5 min to 39.5 min only A was used as mobile phase and the flow rate was reduced to 0.2 ml/min. Subsequently, the ratio was changed to 20% A:80% B and the flowrate was increased to 0.5 ml/min at 43.1 min until the end of the process at 55 min. The detection was performed by a fluorescence detector with an excitation wavelength of 265 nm and an emission wavelength of 425 nm. The identification of the glycan structures was performed by MS using positive electro spray ionization (ESI), which was calibrated every 30 s with a standard.
Four different clones of Chinese hamster ovary (CHO) cells expressing three different monoclonal antibodies (mAb) and a fusion protein were tested. Cells were cultivated in spin tubes between 14 and 20 days at 37° C., 5% CO2, and 80% humidity. As starting cell density, 3×10^5 cells/mL in 30 mL Cellvento®4CHO media (pH 7.0±0.1) was used for clone 1 and 2 producing mAb1 and mAb2, respectively (Cellvento® Platform). Cells were cultivated at an agitation of 320 rpm and were fed on day 3, 5, 10, 12 and 14 with 3% volume of Cellvento® 4Feed (v/v) and on day 7 with 6% (v/v) of the feed. Clone 3 and 4 producing mAb3 and a fusion protein were inoculated at the same cell density in 30 mL Ex-Cell® Advanced Media (pH 7.2±0.1) while agitation was set to 230 rpm (Ex-Cell® Platform). Clones 3 and 4 were fed with […] Advanced Feed (v/v) on day 3, 5, 7, 10, 12, 14 and 17. […] The pH of all Cellvento® feeds was adjusted to 7.0±0.1 and Ex-Cell® Feeds were adjusted to 8.5±0.1. The glucose level was maintained above 4 g/L by adding a specific amount of a 400 g/L glucose stock solution on demand to up to 6 g/L during the week and up to 13 g/L over the weekend. Glucose and titer were detected in the supernatant with the bioprocess analyzer CEDEX Bio HT (Roche, Mannheim, Germany).
To investigate the glycosylation profile during the fed-batch experiment samples were centrifugated and antibodies and Fc-fusion proteins were purified from the cell culture supernatant using protein A PhyTips® (PhyNexus Inc, San Jose, Calif.). Glycosylation patterns were analyzed as described by ultra-performance liquid chromatography coupled to a mass spectrometer (UPLC-MS) using the GlycoWorks™ RapiFluor-MS™ N-Glycan Kit.
Glycosylation profile on day 12 was visualized since harvest of recombinant produced proteins on day 12 is common. Quantification of the glycans was obtained using the relative peak area of the fluorescence signal. Almost all peaks were assigned to glycan structures according to their mass. Unknown glycan structures and signals without mass detection were summarized as unknown species (not shown). Four different clones of Chinese hamster ovary (CHO) cells expressing three different monoclonal antibodies (mAb) and a fusion protein were tested. […] The known positive control achieved a […] level on day 12 by increasing the afucosylation to 78%. The same amount of afucosylation compared to the known fucose-analogue acetylated 2F-Fucose was only achieved by clone 3 expressing mAb3 leading to about […] on day 12 (FIG. 8 C). […]

Kd (FcγRIIIa V176; mAb3 from culture fed with 50 μM additive, day 5): 85 nM | Kd (FcγRIIIa V176; mAb3 from culture fed with 50 μM additive, day 12): 63 nM | Kd (FcγRIIIa V176; mAb3 from culture fed with 50 μM additive, day 14): 61 nM | Kd (FcγRIIIa V176; mAb3 from culture fed with 200 μM additive, day 5): 52 nM | Kd (FcγRIIIa V176; mAb3 from culture fed with 200 μM additive, day 12): 40 nM | Kd (FcγRIIIa V176; mAb3 from culture fed with 200 μM additive, day 14): 28 nM | Kd (FcγRIIIa V176; mAb3 from culture fed with 400 μM additive, day 5): 35 nM | Kd (FcγRIIIa V176; mAb3 from culture fed with 400 μM additive, day 12): 32 nM | Kd (FcγRIIIa V176; mAb3 from culture fed with 800 μM additive, day 5): 40 nM
SMILES: C[C@@H]1SC(O)[C@@H](O)[C@H](O)[C@@H]1O (some centres unmarked)
reduced VCD (area under the curve until day 17, compared to the control) [1]: about 13% | core-fucosylated glycans ([2]; mAb1, 400 μM additive, day 12): about 26% | reduction of the fucosylation compared to the control ([2]; day 7): 64% | reduction of the fucosylation compared to the control ([2]; day 10): 68% | reduction of the fucosylation compared to the control ([2]; day 12): 67%
